Laboratory results reported in patent US9957539B2, “Method for using hexenol glycosyl transferase” (SUNTORY HOLDINGS LIMITED, priority 2013, dated 2018).

B1: Cs_UGT_C30: Camellia sinensis glycosyltransferase, amino acid sequence SEQ ID NO: 2, expressed His-tagged in E. coli (protein, listed as Camellia sinensis)
chain: MGSRKQPHAVCVPFPAQGHINPMMQLAKLLHSRGFYITFVNTEFNHRRLLQSKGPEFLKGCADFQFESIPDGLPPSDRDATQDPPTLCIAMRDNCLDPFRVLLKKLNNNNNSIASRQVPGVTCVVSDGAMNFAMKAAEEAGIPEVQFWTASACGFMGYLHYPQLVQRGIFPFKDESFQSDGSLDTTIDWIPGMRNIRLKDMPSFIRTTDPNDILFNYLSEEVQNCLKASAIIFNTFDTLEHQVLQAIASKFHNIYTIGPLSLLSKQVIDGEFKSLNSSLWKEDTKCLQWLDTKEPNSVVYVNYGSITVMTDQHLKEFAWGLANSKHPFLWIVRPDIVMGDSAILPEHFVEETKDRGLLVSWCPQEQVLSHPSIGVFLTHCGWNSTLESICGGVPIICWPFFAEQQTNCRYACTEWGIGMEVNHDVKRNEIVALINEMLEGDKGKQMRKKALKLKKEAEEATDVGGLSYNNFDRLIKEALHYCEQY
modifications: His tag
B2: Cs_UGT85like_C1: Camellia sinensis glycosyltransferase, amino acid sequence SEQ ID NO: 4, expressed His-tagged in E. coli (protein, listed as Camellia sinensis)
chain: MAKLHFFFFPVMAQGHMIPTLDMAKLFASHGVKATIITTPLNAPYFTRSIQRTHHSISVLTLKFPAVEAGLVEGCESVDQIPSPDMLPNFLKATTMLQDPLERLLQDSRPDCLVADMFFPWATHVAAKFNIPRLVFHGTGFFTLCASENLRLYMPQASVSSDDEPFLVPNLPHKIMLTRSQLPENERCDTETGLSTMLKQVKETELTSYGVIVNSFYELEPDYADYYRNVLGRRAWHIGPVSLCNREVEDKAQRGKESAIDEVECLKWLNSKKPNSVIYVCFGSLGDFTASQLFELAMGLEASGQQFIWVVRKGKIEEDGDEKRLPEEFEERMKDKGLIIRGWAPQVLILDHESIGGFVTHCGWNSILEGVCAGVPMVTWPRFAEQFYNEKLVTEVLRIGVGVGARQWQIGAGSDCIKGETIAKAVKRVMEAGEEAEGMRTRARAAKDMAKKAVEEGGSSYSDLNALIQEMSS
modifications: His tag

Tested on: CsUGTC30
Assay: Specificity of CsUGTC30 for sugar acceptors (relative activity of transglucosylation)
Type: biochemical, Camellia sinensis
Details: UDP-glucose as donor; 30 minutes at 30° C.; activity on geraniol is set to 100% (FIG. 8)
Description: Standard enzyme reaction conditions are as follows.
Next, to clarify the substrate specificity of CsUGTC30, geraniol, linalool, eugenol, benzyl alcohol, 2-phenylethanol, quercetin and cyanidin were each used as a substrate to determine the relative activity of transglucosylation with the above enzyme and under the above enzyme reaction conditions.

Molecule	relative transglucosylation activity of CsUGTC30 on the substrate (sugar acceptor)
OCCc1ccccc1 [2-phenylethanol]	transglycosylation activity
OCc1ccccc1 [benzyl alcohol]	second highest activity
C=CCc1ccc(O)c(OC)c1 [eugenol]	second highest activity
CC(C)=CCC/C(C)=C/CO [geraniol]	highest activity
CC/C=C\CCO [hexenol, cis-3-hexen-1-ol]	at the same level
C=CC(C)(O)CCC=C(C)C (stereo not drawn) [linalool]	transglycosylation activity
O=c1c(O)c(-c2ccc(O)c(O)c2)oc2cc(O)cc(O)c12 [quercetin]	no transglycosylation activity

Tested on: not listed separately
Assay: Hexenol glycosylation activity of recombinant UGT enzymes (enzyme reaction with UDP-glucose, LC-MS analysis of product)
Type: biochemical
Details: 2 mM UDP-glucose, […] sugar acceptor substrate, pH 7.5, 30° C. for 1 hour; product detected by LC-MS against reference standard
Experimental: Standard enzyme reaction conditions are as follows. […] The enzyme reaction solution (5 μl) was analyzed by LC-MS under the following conditions. LC Conditions • Column: CAPCELL PAK C18-UG120 (2.0 mm I.D.×150 mm) • Mobile phase: A: […] (m/z 261, 297, 307) Since green leaf volatiles are found in a wide range of land plants, a search was conducted for UGTs causing glycosylation of green leaf volatiles derived from other plant lines on the basis of homology with the sequence of Camellia sinensis Cs_UGT_C30.

glycosylation activity on cis-3-hexenol (generation of cis-3-hexenyl monoglucoside)	Molecule
glycosylation activity on cis-3-hexenol	B1
glycosylation activity on cis-3-hexenol	B2
